Test results from ChEMBL document CHEMBL5726113, “Compounds and methods for kinase modulation, and indications therefor” (2017).

Target: RAF proto-oncogene serine/threonine-protein kinase (Homo sapiens, UniProt P04049)
Assay: Biochemical Assay: Assays for biochemical and cell based activity are known in the art, for example, as described in PCT publication WO 2007/002433, the disclosure of which is hereby incorporated by reference as it relates to such assays. For example, the biochemical activity IC50 values are determined with respect to inhibition of B-Raf kinase activity, c-Raf-1 kinase activity, or B-Raf V600E kinase activity, where inhibition of phosphorylation of a peptide substrate is measured as a function of compound concentration. Compounds to be tested are diluted in dimethyl sulfoxide to a concentration of 0.1 mM. These are serially diluted 15 μL into 30 μL of dimethyl sulfoxide seven times in 96 well plates for a total of 8 dilution points, and for each dilution point 1 μL is added to a well of an assay plate. Plates are prepared such that each well in a 384 well plate contains 1 μL of compound in 10 μL volume with 0.1 ng Raf enzyme (i.e. any of B-Raf, c-Raf-1 or B-Raf V600E, Upstate Biotechnology or prepared by methods known to one of skill in the art), 50 mM HEPES, pH 7.0, 50 mM NaCl, 2 mM MgCl2, 1 mM MnCl2, 0.01% Tween-20, 1 mM DTT, and 100 nM biotin-MEK1 as substrate. The reaction is started with addition of 10 μL of 200 μM ATP (i.e. final 100 μM ATP). […]

Sequence of RAF proto-oncogene serine/threonine-protein kinase (P04049 whole entry): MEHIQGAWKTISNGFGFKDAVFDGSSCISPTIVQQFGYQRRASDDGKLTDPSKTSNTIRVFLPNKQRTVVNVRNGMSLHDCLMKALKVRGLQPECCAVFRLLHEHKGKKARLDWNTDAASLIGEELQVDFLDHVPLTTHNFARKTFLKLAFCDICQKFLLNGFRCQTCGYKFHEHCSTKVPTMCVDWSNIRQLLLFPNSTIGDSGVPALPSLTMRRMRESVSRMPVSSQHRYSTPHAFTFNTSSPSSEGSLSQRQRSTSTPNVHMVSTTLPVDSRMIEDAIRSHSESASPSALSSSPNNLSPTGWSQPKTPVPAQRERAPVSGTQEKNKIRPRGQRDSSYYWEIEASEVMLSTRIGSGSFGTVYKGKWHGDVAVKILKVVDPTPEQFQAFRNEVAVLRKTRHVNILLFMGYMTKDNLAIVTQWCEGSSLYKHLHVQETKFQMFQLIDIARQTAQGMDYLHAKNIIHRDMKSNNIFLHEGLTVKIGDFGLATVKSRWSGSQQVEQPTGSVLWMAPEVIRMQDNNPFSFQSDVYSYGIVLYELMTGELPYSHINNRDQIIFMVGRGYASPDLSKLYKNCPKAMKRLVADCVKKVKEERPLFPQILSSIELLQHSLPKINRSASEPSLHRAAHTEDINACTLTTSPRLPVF

Q: How did the IC50 turn out when `CCCS(=O)(=O)Nc1ccc(F)c(C(=O)c2c[nH]c3ncnc(Nc4ccccc4)c23)c1F` was run?
A: The IC50 was less than 100 nM.
